Columns and labels:
HCT-116 = experiment: Antiproliferative activity against human HCT-116 cells incubated for 48 hrs by CCK-8 assay; type: functional, cell-based; details: HCT-116, 48 h
HepG2 = experiment: Antiproliferative activity against human HepG2 cells incubated for 48 hrs by CCK-8 assay; type: functional, cell-based; details: HepG2, 48 h
SW480 = experiment: Antiproliferative activity against human SW480 cells incubated for 48 hrs by CCK-8 assay; type: functional, cell-based; details: SW480, 48 h
MDA-MB-231 = experiment: Antiproliferative activity against human MDA-MB-231 cells incubated for 48 hrs by CCK-8 assay; type: functional, cell-based; details: MDA-MB-231, 48 h
HeLa = experiment: Antiproliferative activity against human HeLa cells incubated for 48 hrs by CCK-8 assay; type: functional, cell-based
[1] = Antiproliferative activity against human HEK293T cells incubated for 48 hrs by CCK-8 assay; type: toxicity, cell-based, HEK-293T

| IC50 (HCT-116) [µM] | IC50 (HepG2) [µM] | IC50 (SW480) [µM] | IC50 (MDA-MB-231) [µM] | IC50 (HeLa) [µM] | Compound | IC50 at 48 h [1] [µM] |
| --- | --- | --- | --- | --- | --- | --- |
| > 64 |  |  |  |  | COc1cc(-c2cnc(N)nc2-c2cc(OC)c(OC)c(OC)c2)ccc1O |  |
| > 64 |  |  |  |  | COc1ccc(-c2cnc(N)nc2-c2cc(OC)c(OC)c(OC)c2)cc1C=O |  |
| 3.87 | 1.37 | 36.8 | 27.1 | 19.3 | COc1cc(-c2nc(N)ncc2-c2ccc3cc[nH]c3c2)cc(OC)c1OC | > 80 |
| > 64 |  |  |  |  | COc1cc(-c2ccnn2-c2ccc(S(N)(=O)=O)cc2)cc(OC)c1OC |  |
| > 64 |  |  |  |  | COc1cc(-c2ccnn2-c2cccc3ccccc23)cc(OC)c1OC |  |
| > 64 |  |  |  |  | COc1cc(-c2cnc(N)nc2-c2cc(OC)c(OC)c(OC)c2)cc(OC)c1OC |  |
| > 64 |  |  |  |  | COc1cc(-c2ccnn2-c2ccc(Br)cc2)cc(OC)c1OC |  |
| > 64 |  |  |  |  | COc1cc(-c2ccnn2-c2ccc(Cl)cc2)cc(OC)c1OC |  |
| 23.9 | 15.2 | > 64 | > 64 | > 64 | COc1cc(-c2nc(N)ncc2-c2ccc(C)c(C)c2)cc(OC)c1OC | > 80 |
| > 64 |  |  |  |  | COc1cc(-c2nc(N)ncc2-c2c[nH]c3ccccc23)cc(OC)c1OC |  |
| 13 | 34.1 | 58.4 | 10.6 | 32.3 | COc1ccc(-c2cnc(N)nc2-c2cc(OC)c(OC)c(OC)c2)cc1F | > 80 |
| 38.5 |  |  |  |  | COc1cc(-c2nc(N)ncc2-c2ccc(N)cc2)cc(OC)c1OC |  |
| 3.04 | 0.57 | 4.32 | 4.69 | 11.2 | CCn1c2ccccc2c2cc(-c3cnc(N)nc3-c3cc(OC)c(OC)c(OC)c3)ccc21 | > 80 |
| > 64 |  |  |  |  | COc1cc(-c2ccnn2-c2ccc(C)c(C)c2)cc(OC)c1OC |  |
| > 64 |  |  |  |  | COC(=O)c1ccc(-n2nccc2-c2cc(OC)c(OC)c(OC)c2)cc1 |  |
| > 64 |  |  |  |  | COc1cc(-c2ccnn2-c2ccccc2[N+](=O)[O-])cc(OC)c1OC |  |
| > 64 |  |  |  |  | COc1cc(-c2ccnn2-c2ccc(F)cc2)cc(OC)c1OC |  |
| > 64 |  |  |  |  | COc1cc(-c2nc(N)ncc2-c2cnc(N)nc2)cc(OC)c1OC |  |
| > 64 |  |  |  |  | COc1cc(-c2nc(N)ncc2-c2ccc(Cl)cc2)cc(OC)c1OC |  |
| 16.7 | 2.04 | > 64 | 14 | > 64 | COCc1ccc(-c2cnc(N)nc2-c2cc(OC)c(OC)c(OC)c2)cc1 | > 80 |

| IC50 (HCT-116) [µM] | IC50 (HepG2) [µM] | IC50 (SW480) [µM] | IC50 (MDA-MB-231) [µM] | IC50 (HeLa) [µM] | Compound | IC50 at 48 h [1] [µM] |
| --- | --- | --- | --- | --- | --- | --- |
| > 64 |  |  |  |  | COc1cc(-c2nc(N)ncc2-c2cn(S(=O)(=O)c3ccccc3)c3ccccc23)cc(OC)c1OC |  |
| > 64 |  |  |  |  | COc1cc(-c2nc(N)ncc2-c2cccc(C)c2)cc(OC)c1OC |  |
| > 64 |  |  |  |  | COc1cc(-c2nc(N)ncc2-c2ccccc2)cc(OC)c1OC |  |
| > 64 |  |  |  |  | COc1cc(-c2ccnn2-c2cccnc2)cc(OC)c1OC |  |
| 14.7 | 5.64 | 28.2 | 8.21 | 23.4 | COc1cc(-c2ccnn2-c2ccc(I)cc2)cc(OC)c1OC | > 80 |
| > 64 | > 64 | > 64 | > 64 | > 64 | COc1ccc(-c2cnc(NC(C)=O)nc2-c2cc(OC)c(OC)c(OC)c2)cc1N | > 80 |
| > 64 |  |  |  |  | COc1ccc(-n2nccc2-c2cc(OC)c(OC)c(OC)c2)cn1 |  |
| > 64 |  |  |  |  | COc1cc(-c2ccnn2-c2ccc([N+](=O)[O-])cc2)cc(OC)c1OC |  |
| > 64 |  |  |  |  | CCOc1cc(-c2cnc(N)nc2-c2cc(OC)c(OC)c(OC)c2)ccc1Cl |  |
| 11.8 | 52.1 | > 64 | > 64 | 37.8 | COc1cc(-c2nc(N)ncc2-c2ccc(SC)cc2)cc(OC)c1OC | > 80 |
| > 64 |  |  |  |  | COc1cc(-c2ccnn2-c2cccc([N+](=O)[O-])c2)cc(OC)c1OC |  |
| > 64 |  |  |  |  | COc1cc(-c2nc(N)ncc2-c2ccc(F)cc2)cc(OC)c1OC |  |
| 12.7 | 29.9 | > 64 | 22.4 | 60.5 | COc1ccc(-c2cnc(N)nc2-c2cc(OC)c(OC)c(OC)c2)cc1 | > 80 |
| > 64 |  |  |  |  | COc1ccc(-c2cnc(N)nc2-c2cc(OC)c(OC)c(OC)c2)cc1[N+](=O)[O-] |  |
| > 64 |  |  |  |  | COc1cc(-c2nc(N)ncc2-c2ccc(CO)cc2)cc(OC)c1OC |  |
| > 64 |  |  |  |  | COc1ccc(-n2nccc2-c2cc(OC)c(OC)c(OC)c2)cc1 |  |
| > 64 |  |  |  |  | COc1cc(-c2nc(N)ncc2-c2ccc3c(cnn3C)c2)cc(OC)c1OC |  |
| 7.45 | 17 | 52.2 | 11.6 | > 64 | COc1ccc(-c2cnc(N)nc2-c2cc(OC)c(OC)c(OC)c2)cc1N | > 80 |
| > 64 |  |  |  |  | COc1cc(-c2ccnn2-c2ccc(CO)cc2)cc(OC)c1OC |  |
| > 64 |  |  |  |  | COc1ccc(-c2cnc(N)nc2-c2cc(OC)c(OC)c(OC)c2)cc1Cl |  |

| IC50 (HCT-116) [µM] | IC50 (HepG2) [µM] | IC50 (SW480) [µM] | IC50 (MDA-MB-231) [µM] | IC50 (HeLa) [µM] | Compound | IC50 at 48 h [1] [µM] |
| --- | --- | --- | --- | --- | --- | --- |
| > 64 |  |  |  |  | COc1cc(-c2ccnn2-c2ccc(C(=O)O)cc2)cc(OC)c1OC |  |
| > 64 |  |  |  |  | COc1cc(-c2ccnn2-c2ccc(C#N)cc2)cc(OC)c1OC |  |
| 14.7 | 30.8 | 5.05 | > 64 | 7.54 | COc1cc(-c2nc(N)ncc2-c2ccc3c(ccn3C)c2)cc(OC)c1OC | > 80 |
| > 64 |  |  |  |  | COc1cc(-c2nc(N)ncc2-c2ccc(S(C)(=O)=O)cc2)cc(OC)c1OC |  |
| > 64 |  |  |  |  | COc1cc(-c2ccnn2-c2ccc(O)cc2)cc(OC)c1OC |  |
| > 64 |  |  |  |  | COc1cc(-c2ccnn2-c2ccc(OCc3ccccc3)cc2)cc(OC)c1OC |  |
| > 64 |  |  |  |  | CNS(=O)(=O)Cc1ccc(-n2nccc2-c2cc(OC)c(OC)c(OC)c2)cc1 |  |
| 4.22 | 0.25 | 5.99 | 14.5 | 17.9 | COc1cc(-c2nc(N)ncc2-c2cc3ccccc3s2)cc(OC)c1OC | > 80 |
| > 64 |  |  |  |  | COc1cc(-c2ccnn2-c2cccc(N)c2)cc(OC)c1OC |  |
| > 64 |  |  |  |  | COc1cc(-c2nc(N)ncc2-c2ccccc2C)cc(OC)c1OC |  |
| > 64 |  |  |  |  | COc1cc(-c2nc(N)ncc2-c2ccc([N+](=O)[O-])cc2)cc(OC)c1OC |  |
| > 64 | 45.8 | 39.7 | > 64 | 25.2 | COc1cc(-c2nc(N)ncc2-c2ccc(C)cc2)cc(OC)c1OC | > 80 |
| 17 | 10.3 | 37.9 | 7.29 | 46.6 | COc1cc(-c2ccnn2-c2ccc(C)cc2)cc(OC)c1OC | > 80 |
| > 64 |  |  |  |  | COc1cc(-c2nc(N)ncc2-c2ccc3c(c2)OCCO3)cc(OC)c1OC |  |
| > 64 |  |  |  |  | COC(=O)c1ccc(-c2cnc(N)nc2-c2cc(OC)c(OC)c(OC)c2)cc1 |  |
| > 64 |  |  |  |  | COc1cc(-c2ccnn2-c2nccs2)cc(OC)c1OC |  |
| > 64 |  |  |  |  | COc1cc(-c2ccnn2-c2ccc(S(C)(=O)=O)cc2)cc(OC)c1OC |  |
| > 64 |  |  |  |  | COc1cccc(-c2cnc(N)nc2-c2cc(OC)c(OC)c(OC)c2)c1 |  |

From ChEMBL document CHEMBL5360544, “Design, synthesis, and biological evaluation of diaryl heterocyclic derivatives targeting tubulin polymerization with potent anticancer activities” (Eur J Med Chem, 2023)
